Where a SMILES comes first, the peptide text is derived from it. The star is where a group is joined. βNA = c1ccc2cc(N*)ccc2c1
Assays:
Format in all cases: cell-based, Escherichia coli
[1] = system: susceptible E. coli 10418; assay: Norfloxacin potentiation assay (MIC of norfloxacin with fixed concentration of peptide or PAβN); conditions: broth microdilution, duplicate; for MIC of norfloxacin, E. coli 10418, +128 μg/mL of peptide: fixed 128 μg/mL peptide
Experimental: (§1) In order to gather more evidence on the potential mechanisms of action, the effects of the peptides in combination with the quinolone antibiotic norfloxacin were determined. Norfloxacin is active against Gram-negative bacteria, generally achieving entry via porin channels, but is also able to enter the bacterial cell via the membrane in porin-deficient mutants. Therefore, any membrane permeability mechanism would not be expected to have a significant effect on improving the activity of norfloxacin in porin-competent strains. This is indeed what was observed (Table S5), which added weight to our hypothesis that our very short peptides may be acting as membrane permeability enhancers for novobiocin.
(§2) The antibacterial activity of the peptides and peptide/antibiotic combinations were tested by the broth microdilution assay according to [24]. Escherichia coli NCTC 10,418 and Staphylococcus aureus NCTC 12,981 were obtained from the National Collection of Type Cultures, UK. Escherichia coli G69 was a clinical isolate as previously described.
(§3) Briefly, all bacterial strains were cultured on nutrient agar (Sigma-Aldrich, Gillingham, UK) plates and incubated for 24 h at 37 °C prior to MIC determination. In addition, known quantities of each test sample were dissolved in DMSO and then diluted in ISB (Iso- Sensitest Broth, Oxoid, Basingstoke, UK) to give a range concentration of 128–0 μg/mL, unless stated differently. […] Finally, the overnight cultures of each of the tested strains were suspended to an inoculum density of approximately 1.0 × 10^8 CFU/mL in phosphate buffered saline (PBS), consisting of 137 mM NaCl, 3 mM KCl, 8 mM Na2HPO4, and […] (Oxoid, Basingstoke, UK). The cell suspensions were standardized by adjusting the optical density to 0.1 at 600 nm (Thermo Scientific UV-Vis Spectrophotometer, Abingdon, UK) before being diluted 1:100 in ISB prior to inoculation […]
(§4) The assays were performed by microdilution using 96-well microtiter plates with a final inoculum of 5 × 10^5 CFU/mL and each sample was tested in duplicate in at least two independent experiments in order to confirm the reliability of the data. Results were determined by visual inspection of the wells and the presence of an evident opaque medium or white pellets were indicative of bacterial growth. The MIC values were recorded as the lowest concentration at which no bacterial growth was detected. […]
(§5) potentiating novobiocin. Assays were performed at fixed concentration of 128 μg/mL against susceptible E. coli 10418 and multidrug resistant clinical isolate E. coli G69. Potentiation assay for norfloxacin was also performed in presence of 64 μg/mL of RND efflux pump inhibitor PAβN. All tests were repeated in […]
(§6) Compound Sequence MIC of norfloxacin (μg/mL) […]
(§7) inhibitor PaβN but no potentiation was observed, so the assay was not repeated at lower concentrations.

[2] = system: multidrug resistant clinical isolate E. coli G69; assay: as above; conditions: broth microdilution, duplicate; for MIC of norfloxacin, E. coli G69, +128 μg/mL of peptide: fixed 128 μg/mL peptide
Experimental: as §1, §2, §3, §4, §5, §6, §7

[3] = system: susceptible E. coli NCTC 10418; assay: Novobiocin potentiation assay (MIC of novobiocin with fixed concentration of peptide or PAβN); set-up: key to MIC of Novobiocin, E. coli NCTC 10418, +128 μg/mL added peptide / MIC of Novobiocin, E. coli NCTC 10418, +32 μg/mL added peptide: Non potentiating (NP) indicated no reduction in the MIC of novobiocin was observed; conditions: for MIC of Novobiocin, E. coli NCTC 10418, +128 μg/mL added peptide / MIC of Novobiocin, E. coli NCTC 10418, +32 μg/mL added peptide: Iso-Sensitest Broth, 5 × 10^5 CFU/mL, visual read-out; for MIC of Novobiocin, E. coli NCTC 10418, +128 μg/mL added peptide: fixed 128 μg/mL peptide; for MIC of Novobiocin, E. coli NCTC 10418, +32 μg/mL added peptide: fixed 32 μg/mL peptide; for potentiation of the MIC of novobiocin, result in words: added peptide, wording covers susceptible and multi-drug resistant strain
Experimental: (§8) The peptides were also tested in combination with antibiotics novobiocin and norfloxacin. Novobiocin has low efficacy against Gram-negative bacteria due to its hydrophobicity, giving limited cell permeability.
as §2
(§9) Briefly, all bacterial strains were cultured on nutrient agar (Sigma-Aldrich, Gillingham, UK) plates and incubated for 24 h at 37 °C prior to MIC determination. In addition, known quantities of each test sample were dissolved in DMSO and then diluted in ISB (Iso- Sensitest Broth, Oxoid, Basingstoke, UK) to give a range concentration of 128–0 μg/mL, unless stated differently. […] Finally, the overnight cultures of each of the tested strains were suspended to an inoculum density of approximately 1.0 × 10^8 CFU/mL in phosphate buffered saline (PBS), consisting of 137 mM NaCl, 3 mM KCl, 8 mM Na2HPO4, and […] (Oxoid, Basingstoke, UK). The cell suspensions were standardized by adjusting the optical density to 0.1 at 600 nm (Thermo Scientific UV-Vis Spectrophotometer, Abingdon, UK) before being diluted 1:100 in ISB prior to inoculation
(§10) The assays were performed by microdilution using 96-well microtiter plates with a final inoculum of 5 × 10^5 CFU/mL and each sample was tested in duplicate in at least two independent experiments in order to confirm the reliability of the data. Results were determined by visual inspection of the wells and the presence of an evident opaque medium or white pellets were indicative of bacterial growth. The MIC values were recorded as the lowest concentration at which no bacterial growth was detected.

[4] = system: multi-drug resistant clinical isolate E. coli G69; assay: as above; set-up: key to MIC of Novobiocin, E. coli G69, +32 μg/mL added peptide / MIC of Novobiocin, E. coli G69, +128 μg/mL added peptide: Non potentiating (NP) indicated no reduction in the MIC of novobiocin was observed; conditions: for MIC of Novobiocin, E. coli G69, +128 μg/mL added peptide / MIC of Novobiocin, E. coli G69, +32 μg/mL added peptide: Iso-Sensitest Broth, 5 × 10^5 CFU/mL, visual read-out; for MIC of Novobiocin, E. coli G69, +128 μg/mL added peptide: fixed 128 μg/mL peptide; for potentiation of novobiocin against multi-drug resistant E. coli, result in words: E. coli G69, added peptide; for MIC of Novobiocin, E. coli G69, +32 μg/mL added peptide: fixed 32 μg/mL peptide
Experimental: as §8, §2, §9, §10

[5] = fixed 32 μg/mL PAβN, broth microdilution, duplicate
[6] = fixed 64 μg/mL PAβN, broth microdilution, duplicate

Compound	MIC of Novobiocin, E. coli NCTC 10418, +128 μg/mL added peptide ([3]; broth microdilution, duplicate)	MIC of Novobiocin, E. coli G69, +128 μg/mL added peptide ([4]; broth microdilution, duplicate)	MIC of Novobiocin, E. coli G69, +32 μg/mL added peptide ([4]; broth microdilution, duplicate)	MIC of norfloxacin, E. coli 10418, +128 μg/mL of peptide [1] [µg/mL]	MIC of norfloxacin, E. coli G69, +128 μg/mL of peptide [2] [µg/mL]	further results
NC(N)=NCCC[C@H](NC(=O)[C@@H](N)Cc1ccccc1)C(=O)Nc1ccc2ccccc2c1 [PAβN, phenylalanine-arginine-β-naphthylamide, reference compound] (H-Phe-Arg-βNA)						MIC of norfloxacin, E. coli 10418, +64 μg/mL PAβN ([1]; fixed 64 μg/mL PAβN): 0.125 µg/mL; MIC of norfloxacin, E. coli G69, +64 μg/mL PAβN ([2]; fixed 64 μg/mL PAβN): > 128 µg/mL; reduction in MIC for novobiocin, susceptible E. coli 10418 ([3]; PAβN concentration of 72 μM (32 μg/mL)): twofold; MIC of Novobiocin, E. coli NCTC 10418, +32 μg/mL PAβN [3, 5]: 16 µg/mL; MIC of Novobiocin, E. coli NCTC 10418, +64 μg/mL PAβN [3, 6]: 8 µg/mL; MIC of Novobiocin, E. coli G69, +32 μg/mL PAβN [4, 5]: 8 µg/mL; MIC of Novobiocin, E. coli G69, +64 μg/mL PAβN [4, 6]: 2 µg/mL; concentration at which synergism with novobiocin is provided against multi-drug resistant E. coli G69 ([4]; molar equivalent of the 32 μg/mL fixed concentration): 72 µM
FKFK [Compound 17, short cationic peptide FKFK, amidated at the C-terminus]	NP	NP				
FKFKF [Compound 19, short cationic peptide FKFKF, amidated at the C-terminus]	4 µg/mL	8 µg/mL	32 µg/mL			MIC of Novobiocin, E. coli NCTC 10418, +32 μg/mL added peptide ([3]; broth microdilution, duplicate): 128 µg/mL; potentiation of novobiocin against multi-drug resistant E. coli, result in words [4]: restore the susceptibility
FKPLPPH [Compound 25, proline-rich peptide FKPLPPH, C-terminal amide; commercial sample from ThermoFisher]	8 µg/mL	NP		0.062	> 128	potentiation of the MIC of novobiocin, result in words [3]: Potentiation was restored but again only against susceptible strain
FRFR [Compound 8, short cationic peptide FRFR, amidated at the C-terminus]	NP	8 µg/mL	NP			
FRFRF [Compound 10, short cationic peptide FRFRF, amidated at the C-terminus]	2 µg/mL	4 µg/mL	8 µg/mL			potentiation of novobiocin against multi-drug resistant E. coli, result in words [4]: restore the susceptibility
FRRQRF [Compound 21, short cationic peptide FRRQRF, C-terminal amide; commercial sample from ThermoFisher]	NP ^†	NP		0.062	> 128	
KFKF [Compound 18, short cationic peptide KFKF, amidated at the C-terminus]	NP	NP				
KWKW [Compound 14, short cationic peptide KWKW, amidated at the C-terminus]	NP	NP				
RFRF [Compound 9, short cationic peptide RFRF, amidated at the C-terminus]	2 µg/mL	8 µg/mL	128 µg/mL	0.062	> 128	MIC of Novobiocin, E. coli NCTC 10418, +32 μg/mL added peptide ([3]; broth microdilution, duplicate): NP
RPPWRPPW [Compound 26]	8 µg/mL	NP			> 128	MIC of Novobiocin, E. coli NCTC 10418, +32 μg/mL added peptide ([3]; broth microdilution, duplicate): 64 µg/mL; potentiation of novobiocin against multi-drug resistant E. coli, result in words [4]: no potentiation was seen against the multidrug resistant strain
RPRPRPL [Compound 22, proline-rich cationic peptide RPRPRPL, amidated at the C-terminus]	NP	NP		0.062	> 128	potentiation of the MIC of novobiocin, result in words [3]: did not show any significant potentiation
RPRRPRLPW-NH2 [Compound 27]	0.125 µg/mL	16 µg/mL	16 µg/mL	0.062	> 128	fold reduction in the MIC of novobiocin against the susceptible strain ([3]; E. coli 10418, added peptide): 256 fold; MIC of Novobiocin, E. coli NCTC 10418, +32 μg/mL added peptide ([3]; broth microdilution, duplicate): 8 µg/mL; potentiation of novobiocin against multi-drug resistant E. coli, result in words [4]: restore the susceptibility
RRFRF [Compound 11, short cationic peptide RRFRF, amidated at the C-terminus]	64 µg/mL	64 µg/mL				
WKWK [Compound 13, short cationic peptide WKWK, amidated at the C-terminus]	NP	NP				

From article PMC7730182, “Synthesis and in Silico Modelling of the Potential Dual Mechanistic Activity of Small Cationic Peptides Potentiating the Antibiotic Novobiocin against Susceptible and Multi-Drug Resistant Escherichia coli” (International Journal of Molecular Sciences, 2020)
